# Data as given in patent US20150010928A1, “MEANS AND METHODS FOR ASSESSING AN ENDOCRINE DISEASE OR DISORDER” (priority 2012, published 2015).
# Marks after values point to notes of the source that are not given here.
# Test system: female rats
# Experiment: Plasma metabolite profiling (GC-MS, LC-MS, SPE-LC-MS) in female rats dosed once daily over 28 days (OECD 407)
# Type: in vivo, rat
# Settings: high dose
# How it was run: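 Polar and lipid fractions profiled by GC-MS and LC-MS/MRM, steroids by online SPE-LC-MS; pool-normalized data compared to controls by Welch test as treatment ratios and p-values.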
structure (smiles),measurement,setting,value
C[C@]12CCC(=O)C=C1CC[C@@H]1[C@@H]2CC[C@@]2(C)[C@H]1CC[C@]2(C)O [17-alpha-Methyltestosterone],3-Hydroxybutyrate,"f7, female rats, Table 15a",1.5*
same,"DAG (C18:1,C18:2)","f7, female rats, Table 15a",3.01 *
same,Glutamate,"f7, female rats, Table 15a",1.56 *
same,Glycine,"f7, female rats, Table 15a",1.28 *
same,"Phosphatidylcholine (C16:0,C20:5)","f7, female rats, Table 15a",1.22 *
same,"TAG (C16:0,C16:1)","f7, female rats, Table 15a",3.85 *
same,"TAG (C16:0,C18:1,C18:3)","f7, female rats, Table 15a",8.68 *
same,"TAG (C16:0,C18:2)","f7, female rats, Table 15a",4.63 *
same,"TAG (C18:1,C18:2)","f7, female rats, Table 15a",5.83 *
same,"TAG (C18:2,C18:2)","f7, female rats, Table 15a",4.67 *
same,"TAG (C18:3, C18:2, C18:1)","f7, female rats, Table 15a",6.36*
same,TAG (DAG-Fragment),"f7, female rats, Table 15a",5.82 *
same,TAG No 059,"f7, female rats, Table 15a",3.27 *
same,Threonic acid,"f7, female rats, Table 15a",1.65 *
same,trans-4-Hydroxyproline,"f7, female rats, Table 15a",1.4 *
same,Arginine,"f7, female rats, Table 15b",0.69 *
same,Campesterol,"f7, female rats, Table 15b",0.65 *
same,"Ceramide (d18:1,C24:0)","f7, female rats, Table 15b",0.79 *
same,Lactate,"f7, female rats, Table 15b",0.47 *
same,Lysine,"f7, female rats, Table 15b",0.49 *
same,Metanephrine,"f7, female rats, Table 15b",0.78 *
same,Normetanephrine,"f7, female rats, Table 15b",0.61 *
same,"Phosphatidylcholine (C16:0,C20:5)","f7, female rats, Table 15b",1.22
same,"Phosphatidylcholine (C16:0,C22:6)","f7, female rats, Table 15b",0.86 *
same,"Phosphatidylcholine (C18:0, C20:3)","f7, female rats, Table 15b",0.69 *
same,"Phosphatidylcholine (C18:0,C18:1)","f7, female rats, Table 15b",0.78 *
same,Pyruvate,"f7, female rats, Table 15b",0.52 *
same,"Sphingomyelin (d18:1,C23:0)","f7, female rats, Table 15b",0.56 *
same,"Sphingomyelin (d18:1,C24:0)","f7, female rats, Table 15b",0.67 *
same,Urea,"f7, female rats, Table 15b",0.72 *
same,3-Hydroxybutyrate,"f14, female rats, Table 15a",2.03 *
same,"DAG (C18:1,C18:2)","f14, female rats, Table 15a",3.17 *
same,Glutamate,"f14, female rats, Table 15a",1.43 *
same,Glycine,"f14, female rats, Table 15a",1.15 *
same,"Phosphatidylcholine (C16:0,C20:5)","f14, female rats, Table 15a",1.15 *
same,"TAG (C16:0,C16:1)","f14, female rats, Table 15a",2.59 *
same,"TAG (C16:0,C18:1,C18:3)","f14, female rats, Table 15a",7.54 *
same,"TAG (C16:0,C18:2)","f14, female rats, Table 15a",4.63 *
same,"TAG (C18:1,C18:2)","f14, female rats, Table 15a",4.5 *
same,"TAG (C18:2,C18:2)","f14, female rats, Table 15a",5.09 *
same,"TAG (C18:3, C18:2, C18:1)","f14, female rats, Table 15a",5.29 *
same,TAG (DAG-Fragment),"f14, female rats, Table 15a",5.43 *
same,TAG No 059,"f14, female rats, Table 15a",4.08 *
same,Threonic acid,"f14, female rats, Table 15a",2.84 *
same,trans-4-Hydroxyproline,"f14, female rats, Table 15a",1.56 *
same,Arginine,"f14, female rats, Table 15b",0.67 *
same,Campesterol,"f14, female rats, Table 15b",0.62 *
same,"Ceramide (d18:1,C24:0)","f14, female rats, Table 15b",0.7 *
same,Lactate,"f14, female rats, Table 15b",0.34 *
same,Lysine,"f14, female rats, Table 15b",0.49 *
same,Metanephrine,"f14, female rats, Table 15b",0.66 *
same,Normetanephrine,"f14, female rats, Table 15b",0.65 *
same,"Phosphatidylcholine (C16:0,C20:5)","f14, female rats, Table 15b",1.15
same,"Phosphatidylcholine (C16:0,C22:6)","f14, female rats, Table 15b",0.78 *
same,"Phosphatidylcholine (C18:0, C20:3)","f14, female rats, Table 15b",0.76 *
same,"Phosphatidylcholine (C18:0,C18:1)","f14, female rats, Table 15b",0.94 *
same,Pyruvate,"f14, female rats, Table 15b",0.35 *
same,"Sphingomyelin (d18:1,C23:0)","f14, female rats, Table 15b",0.52 *
same,"Sphingomyelin (d18:1,C24:0)","f14, female rats, Table 15b",0.6 *
same,Urea,"f14, female rats, Table 15b",0.63 *
same,3-Hydroxybutyrate,"f28, female rats, Table 15a",1.49 *
same,"DAG (C18:1,C18:2)","f28, female rats, Table 15a",2.97 *
same,Glutamate,"f28, female rats, Table 15a",1.58 *
same,Glycine,"f28, female rats, Table 15a",1.29 *
same,"Phosphatidylcholine (C16:0,C20:5)","f28, female rats, Table 15a",1.17*
same,"TAG (C16:0,C16:1)","f28, female rats, Table 15a",2.04 *
same,"TAG (C16:0,C18:1,C18:3)","f28, female rats, Table 15a",9.21*
same,"TAG (C16:0,C18:2)","f28, female rats, Table 15a",5.09 *
same,"TAG (C18:1,C18:2)","f28, female rats, Table 15a",5.32 *
same,"TAG (C18:2,C18:2)","f28, female rats, Table 15a",8.15 *
same,"TAG (C18:3, C18:2, C18:1)","f28, female rats, Table 15a",7.3*
same,TAG (DAG-Fragment),"f28, female rats, Table 15a",6.9 *
same,TAG No 059,"f28, female rats, Table 15a",5.2 *
same,Threonic acid,"f28, female rats, Table 15a",2.29 *
same,trans-4-Hydroxyproline,"f28, female rats, Table 15a",1.61 *
same,Arginine,"f28, female rats, Table 15b",0.59 *
same,Campesterol,"f28, female rats, Table 15b",0.66 *
same,"Ceramide (d18:1,C24:0)","f28, female rats, Table 15b",0.52 *
same,Lactate,"f28, female rats, Table 15b",0.52 *
same,Lysine,"f28, female rats, Table 15b",0.52 *
same,Metanephrine,"f28, female rats, Table 15b",0.81 *
same,Normetanephrine,"f28, female rats, Table 15b",0.66 *
same,"Phosphatidylcholine (C16:0,C20:5)","f28, female rats, Table 15b",1.17
same,"Phosphatidylcholine (C16:0,C22:6)","f28, female rats, Table 15b",0.79 *
same,"Phosphatidylcholine (C18:0, C20:3)","f28, female rats, Table 15b",0.68 *
same,"Phosphatidylcholine (C18:0,C18:1)","f28, female rats, Table 15b",0.81 *
same,Pyruvate,"f28, female rats, Table 15b",0.4 *
same,"Sphingomyelin (d18:1,C23:0)","f28, female rats, Table 15b",0.42 *
same,"Sphingomyelin (d18:1,C24:0)","f28, female rats, Table 15b",0.52 *
same,Urea,"f28, female rats, Table 15b",0.8*
